{"source": "patent US4200635A", "about": "“Antibacterially active amides” (Beecham Group Limited, priority 1977, dated 1980)", "key": {"[1]": {"system": "Haemophilus influenzae Wy21", "experiment": "MIC, serial dilution in nutrient agar, human bacteria", "format": "cell-based", "settings": "Haemophilus influenzae Wy21; nutrient agar containing 5% chocolated horse blood; read-out: M.I.C."}, "[2]": {"system": "Haemophilus influenzae Q1", "experiment": "MIC, serial dilution in nutrient agar, human bacteria", "format": "cell-based", "settings": "nutrient agar containing 5% chocolated horse blood"}, "[3]": {"system": "Bacillus subtilis 6633", "experiment": "MIC, serial dilution in nutrient agar, human bacteria", "format": "cell-based", "settings": "Bacillus subtilis 6633; nutrient agar containing 5% chocolated horse blood; read-out: M.I.C."}, "[4]": {"system": "Strep. pneumoniae CN33", "experiment": "MIC, serial dilution in nutrient agar, human bacteria", "format": "cell-based", "settings": "Streptococcus pneumoniae; Strep. pneumoniae CN33; nutrient agar containing 5% chocolated horse blood; read-out: M.I.C."}, "[5]": {"system": "M. pneumoniae 427a", "experiment": "in vitro MIC, anti-mycoplasmal activity", "format": "cell-based", "settings": "Mycoplasmoides pneumoniae, Friis' broth, microtiter method"}, "[6]": {"system": "Past. multocida PAI", "experiment": "MIC, veterinary bacteria", "format": "cell-based", "settings": "Pasteurella multocida; Past. multocida PAI; read-out: M.I.C."}, "[7]": {"system": "Strep. uberis SPU 1", "experiment": "MIC, veterinary bacteria", "format": "cell-based", "settings": "Streptococcus uberis, SPU1; Strep. uberis SPU 1; read-out: M.I.C."}, "[8]": {"system": "Strep. dysgalactiae SPD 1", "experiment": "MIC, veterinary bacteria", "format": "cell-based", "settings": "Streptococcus dysgalactiae, SPD1; Strep. dysgalactiae SPD 1; read-out: M.I.C."}, "[9]": {"system": "Staph. aureus 152", "experiment": "MIC, veterinary bacteria", "format": "cell-based", "settings": "Staphylococcus aureus"}, "[10]": {"system": "Staph. aureus Russell", "experiment": "MIC, serial dilution in nutrient agar, human bacteria", "format": "cell-based", "settings": "Staphylococcus aureus; Staph. aureus Russell; nutrient agar containing 5% chocolated horse blood; read-out: M.I.C."}, "[11]": {"system": "M. suipneumoniae J2206/183b", "experiment": "in vitro MIC, anti-mycoplasmal activity", "format": "cell-based", "settings": "Mesomycoplasma hyopneumoniae, Friis' broth, microtiter method", "excerpt": "(§1) Tables 3 and 4 show the in vitro MIC values (μg/ml) of the compounds of Examples 1 to 9 against a number of mycoplasma organisms, determined in Friis' broth using the microtiter method."}, "[12]": {"system": "M. pulmonis JB", "experiment": "in vitro MIC, anti-mycoplasmal activity", "format": "cell-based", "settings": "Mycoplasmopsis pulmonis, Friis' broth, microtiter method", "excerpt": "as §1"}, "[13]": {"system": "M. dispar NCTC 10125", "experiment": "in vitro MIC, anti-mycoplasmal activity", "format": "cell-based", "settings": "Friis' broth, microtiter method", "excerpt": "as §1"}, "[14]": {"system": "M. fermentans MWKL4", "experiment": "in vitro MIC, anti-mycoplasmal activity", "format": "cell-based", "settings": "Mycoplasmopsis fermentans, Friis' broth, microtiter method", "excerpt": "as §1"}, "[15]": {"system": "Staph. aureus Oxford", "experiment": "MIC, serial dilution in nutrient agar, human bacteria", "format": "cell-based", "settings": "Staphylococcus aureus; Staph. aureus Oxford; nutrient agar containing 5% chocolated horse blood; read-out: M.I.C."}, "[16]": {"system": "Pasteurella multocida 1633", "experiment": "MIC, serial dilution in nutrient agar, human bacteria", "format": "cell-based", "settings": "nutrient agar containing 5% chocolated horse blood"}, "[17]": {"system": "Neisseria flavescens 8263", "experiment": "MIC, serial dilution in nutrient agar, human bacteria", "format": "cell-based", "settings": "nutrient agar containing 5% chocolated horse blood"}, "[18]": {"system": "Bord. bronchiseptica BO9", "experiment": "MIC, veterinary bacteria", "format": "cell-based", "settings": "Bordetella bronchiseptica, BO9"}, "[19]": {"system": "Past. haemolytica PA5", "experiment": "MIC, veterinary bacteria", "format": "cell-based", "settings": "Mannheimia haemolytica, PA5"}, "[20]": {"system": "Staph. aureus B4", "experiment": "MIC, veterinary bacteria", "format": "cell-based", "settings": "Staphylococcus aureus; Staph. aureus B4; read-out: M.I.C."}, "[21]": {"system": "certain Gram-positive and Gram-negative organisms", "settings": "statement about monic acid A and its esters, earlier British applications; cited from earlier work"}}, "data": [{"compound": "COC(=O)CNC(=O)C=C(C)CC1OCC(CC2OC2C(C)C(C)O)C(O)C1O", "note": "(stereo not drawn) [Example 3, Methoxycarbonylmethylamide of monic acid A]", "values": [{"measurement": "MIC", "setting": "[1]", "value": 1.2, "unit": "µg/mL"}, {"measurement": "MIC", "setting": "[2]", "value": 1.2, "unit": "µg/mL"}, {"measurement": "MIC", "setting": "[3]", "value": 25, "unit": "µg/mL"}, {"measurement": "MIC", "setting": "[4]", "value": 25, "unit": "µg/mL"}, {"measurement": "MIC", "setting": "[5]", "value": 250, "unit": "µg/mL"}, {"measurement": "MIC", "setting": "[6]", "value": 10, "unit": "µg/mL"}, {"measurement": "MIC", "setting": "[7]", "value": 5, "unit": "µg/mL"}, {"measurement": "MIC", "setting": "[8]", "value": 1.25, "unit": "µg/mL"}, {"measurement": "MIC", "setting": "[9]", "value": "> 80", "unit": "µg/mL"}, {"measurement": "MIC", "setting": "[10]", "value": 125, "unit": "µg/mL"}, {"measurement": "MIC", "setting": "[11]", "value": 7.8, "unit": "µg/mL"}, {"measurement": "MIC", "setting": "[12]", "value": 62.5, "unit": "µg/mL"}, {"measurement": "MIC", "setting": "[13]", "value": "< 0.5", "unit": "µg/mL"}, {"measurement": "MIC", "setting": "[14]", "value": "< 0.5", "unit": "µg/mL"}, {"measurement": "MIC", "setting": "[15]", "value": 25, "unit": "µg/mL"}, {"measurement": "MIC", "setting": "[16]", "value": 12.5, "unit": "µg/mL"}, {"measurement": "MIC", "setting": "[17]", "value": 25, "unit": "µg/mL"}, {"measurement": "MIC", "setting": "[18]", "value": 5, "unit": "µg/mL"}, {"measurement": "MIC", "setting": "[19]", "value": 5, "unit": "µg/mL"}, {"measurement": "MIC", "setting": "[20]", "value": 40, "unit": "µg/mL"}]}, {"compound": "CC(=CC(=O)O)CC1OCC(CC2OC2C(C)C(C)O)C(O)C1O", "note": "(stereo not drawn) [monic acid A]", "values": [{"measurement": "antibacterial activity", "setting": "[21]", "value": "does not appear to have antibacterial activity"}]}]}
